# Assays:
# GABA autoreceptor [1] = assay: antagonist activity at GABA autoreceptors by blockade of agonist (muscimol)-induced inhibition of potassium-evoked [3H]-GABA release from rat cortex slices in vitro (Procedure 1); format: biochemical; settings: for Antagonism at GABA autoreceptor pA2 values: Procedure 1, agonist muscimol, rat cerebral cortex slices; for IC50: inhibition of the effect of a single concentration of muscimol, read-out: IC50 value (GABA autoreceptor antagonism)
# Description: (§1) Advantageously compounds of formula I appear to be selective in that they display little or no activity at GABAA receptors. The following test procedures were used to measure antagonist activity at (a) GABA autoreceptors by blockade of agonist-induced inhibition of potassium-evoked GABA release from rat cortex in vitro (Procedure 1); and (b) GABAA receptors by antagonism of agonist-induced depolarization of the isolated rat vagus nerve (Procedure 2):
# Slices (0.25×0.25×2.0 mm) of rat cerebral cortex are prepared using a McIlwain tissue chopper. The slices are incubated in Krebs-Henseleit solution containing [^3 H]-GABA (10^-7 M) in the presence of amino-oxyacetic acid (AOAA) for 20 minutes at 37° C., rinsed with 5ml aliquots of Krebs-Henseleit solution and transferred to 10 superfusion chambers (volume 300μl). The slices are continuously superfused with Krebs-Henseleit solution (0.4 ml min^-1) containing AOAA (10^-5 M) and fractions of the superfusate collected every 4 minutes. Transmitter release is induced by 4 minute exposure to a Krebs-Henseleit solution containing 25 mM potassium ion (with concomitant reduction in sodium to maintain osmolarity) after 68 […] and 92 (S2) minutes of superfusion. The antagonist compound under study is added to the superfusing medium 10 minutes prior to the first potassium stimulation and remains throughout the superfusion. The GABA autoreceptor is activated by adding the agonist muscimol 20 minutes before the second potassium stimulation. The residual radioactivity in the slices at the end of the experiment together with that in the superfusate. fractions is measured by liquid scintillation counting
# Calculations: The amount of radioactivity in each fraction is expressed as a percentage of the total radioactivity in the tissue at the start of the respective collection period. The amount of radioactivity released above basal by the increased potassium is calculated and the ratio S2/S1 obtained. The S2/S1 ratio from muscimol-treated slices is expressed as a percentage of the control drug-free S2/S1 ratio. A dose-response curve for the agonist muscimol is constructed and the effect of antagonists is measured by their ability to displace this dose-response curve to the right. From this measurement a pA2 value can be calculated. Alternatively, an IC50 value for antagonists can be calculated by inhibiting the effect of a single concentration of muscimol with increasing concentrations of antagonist.
# GABA autoreceptor [2] = settings: previously shown; cited from earlier work
# [3] = known; cited from earlier work
# GABAA receptor [4] = settings: non-selective; cited from earlier work
# GABAA receptor [5] = assay: antagonism at GABAA receptors: antagonism of GABA-induced depolarization of the isolated rat vagus nerve (Procedure 2); format: biochemical
# Description: as §1
# Male Sprague-Dawley rats (250-400g) are killed by a blow to the head and cervical dislocation. The cervical vagus nerves are transferred into Krebs' solution at room temperature and the connective tissue sheath removed. The vagus nerves are placed in two-compartment Perspex baths to permit extracellular recording of agonist induced depolarizations. Each nerve projects from one compartment to the next by way of a grease filled slot, the grease serving to insulate the compartments from each other. […] One compartment is continuously perfused (5ml min^-1) with Krebs' solution at 27° C. to which agonist and antagonist drugs are added. […] Non-cumulative concentration-response curves to GABA (10^-6 to 3×10^-4 M) are obtained using a 5 min contact time and 10-20 min wash period and the effect of the test antagonist compound is measured by its ability to shift this concentration-response curve to the right.
Antagonism at GABA autoreceptor pA2 values (GABA autoreceptor [1]),IC50 (GABA autoreceptor [1]) [nM],Molecule,also measured
8.5,–,"c1ccc2c(c1)CCN[C@H]2[C@@H]1CCCO1 (relative stereo) [Compound C, 1RS, 2'SR-1-(2-Tetrahydrofuranyl)-1,2,3,4-tetrahydroisoquinoline]",–
–,480,"Oc1ccc(C2NCCc3cc(O)c(O)cc32)cc1 (stereo not drawn) [Example 12, 1-(4-Hydroxyphenyl)-6,7-dihydroxy-1,2,3,4-tetrahydroisoquinoline]",–
8.4,–,"c1csc(C2NCCc3ccccc32)c1 (racemic) [E, 1,2,3,4-Tetrahydro-1-(2-thienyl)isoquinoline]",–
–,2.7,"CN1CCc2ccccc2[C@@H]1[C@@H]1CCCO1 (single isomer, unassigned) [(+) isomer of Compound D, (+)1R*,2'S*-1-(2-tetrahydrofuranyl)-2-methyl-1,2,3,4-tetrahydroisoquinoline]",–
7.0,–,"COc1cc2c(cc1OC)[C@H]([C@@H]1CCCO1)NCC2 (relative stereo) [A, 1RS,2'SR-1-(2-Tetrahydrofuranyl)-1,2,3,4-tetrahydro-6,7 dimethoxyisoquinoline]",Antagonism at GABAA receptors (GABAA receptor [5]; at 10^-4 M): inactive
5.2,–,"COc1cc2c(cc1OC)[C@H]([C@H]1CCCO1)NCC2 (relative stereo) [B, 1RS,2'RS-1-(2-Tetrahydrofuranyl) -1,2,3,4- Tetrahydro-6,7-dimethoxyisoquinoline]",–

# Second part, the molecule before the results:
Molecule,Antagonism at GABA autoreceptor pA2 values (GABA autoreceptor [1]),IC50 (GABA autoreceptor [1]) [nM],also measured
picrotoxin,–,–,activity at GABA autoreceptor (GABA autoreceptor [2]): antagonists at the GABA autoreceptor; convulsant action [3]: known convulsants; activity at GABAA receptor (GABAA receptor [4]): also active at the GABAA receptor
"CN1CCc2ccccc2[C@@H]1[C@@H]1CCCO1 (single isomer, unassigned) [(-) isomer of Compound D, (-) 1R*,2'S*-1-(2-tetrahydrofuranyl)-2-methyl-1,2,3,4-tetrahydroisoquinoline]",–,260,–
"c1ccc2c(c1)CCN[C@H]2[C@@H]1CCCO1 (single isomer, unassigned) [(-) enantiomer of Compound C]",–,20,–
"CN1CCc2ccccc2[C@@H]1[C@@H]1CCCO1 (relative stereo) [Compound D, 1RS, 2'SR-1-(2-Tetrahydrofuranyl)-2-methyl-1,2,3,4-tetrahydroisoquinoline]",9.2,–,Antagonism at GABAA receptors (GABAA receptor [5]; at 10^-5 M): inactive
"c1ccc2c(c1)CCN[C@H]2[C@@H]1CCCO1 (single isomer, unassigned) [(+) isomer of Compound C]",–,8600,–
CN1CCc2cc3c(cc2[C@H]1[C@@H]1OC(=O)c2c1ccc1c2OCO1)OCO3 [bicuculline],–,–,activity at GABA autoreceptor (GABA autoreceptor [2]): antagonists at the GABA autoreceptor; convulsant action [3]: known convulsants; activity at GABAA receptor (GABAA receptor [4]): also active at the GABAA receptor

# From patent publication US5118690A, “Pharmaceutical tetrahydroisoquinolines” (John Wyeth & Brother Limited, priority 1989, dated 1992)
